Source: US20160251402A1, “MICROPEPTIDES AND USE OF SAME FOR MODULATING GENE EXPRESSION” (UNIVERSITE PAUL SABATIER TOULOUSE III, priority 2013, published 2016)
Entries after “also recorded” stand apart in the source; their conditions may differ.

Legend:
[1] = test system: HAM1 (accession No. MtGI9-TC114268); assay: Expression of the HAM1 gene in M. truncatula (qRT-PCR); format: in vivo, Medicago truncatula
Experimental: (§1) The surface of seeds of M truncatula was sterilized and they were left to germinate on agar plates for 5 days at 4° C. in the dark. The young shoots were then grown on 12-cm square plates filled with Fahraeus medium without nitrogen and containing 7.5 μM phosphate (Lauressergues et al., Plant J., 72(3): 512-22, 2012). The lateral roots were counted every day. In pots, the plants were watered every other day with modified Long Ashton medium with low phosphorus content (Balzergue et al., Journal of Experimental Botany, (62)1049-1060, 2011).
(§2) The peptides were synthesized by Eurogentec or Smartox-Biotech. MtmiPEP171b1 was resuspended in a solution of 40% water/50% acetonitrile/10% acetic acid (v/v/v), and the other peptides were resuspended in water.
(§3) The total RNA was extracted from roots of M. truncatula or from tobacco leaves using the extraction kit RNeasy Plant Mini Kit (Qiagen). […]
(§4) The mean values of the relative expression of the genes or of the production of lateral roots were analysed using the Student test or the Kruskal-Wallis test. […]
(§5) The composite plants having roots transformed with Agrobacterium rhizogenes were obtained by the method described in Boisson-Dernier et al. (Mol Plant-Microbe Interact, 18: 1269-1276, 2005). The transformed roots were verified and selected by observations of DsRED with a binocular fluorescence magnifier. […]

[2] = test system: HAM2 (accession No. MtGI9-TC120850); assay: Expression of the HAM2 gene in M. truncatula (qRT-PCR); format: in vivo, Medicago truncatula
Experimental: as §1, §2, §3, §4, §5

[3] = test system: MtmiR171b; assay: Accumulation of MtmiR171b / pre-MtmiR171b in M. truncatula roots (qRT-PCR); format: in vivo, Medicago truncatula; conditions: for relative expression of pre-MtmiR171b: watering once daily for 5 days with peptide at 0.01, 0.1 or 1 μM vs control plants
Experimental: as §1, §2
The RNA was extracted using the reagent Tri-Reagent (MRC) according to the manufacturer's instructions, except for precipitation of the RNA, which was carried out with 3 volumes of ethanol. The everse transcription of the RNA was carried out using the specific stem-loop primer RTprimer171b in combination with hexamers for performing the reverse transcription of RNA of high molecular weight.
In brief, 1 μg of RNA was added to the stem-loop primer MIR171b (0.2 μM), the hexamer (500 ng), the buffer RT (1×), the enzyme SuperScript Reverse transcriptase (SSIII) (one unit), the dNTPs (0.2 mM each), DTT (0.8 mM) in a final reaction mixture of 25 μl. […]
as §4, §5

[4] = test system: pre-MtmiR171b, pre-MtmiR169, pre-MtmiR169a, pre-MtmiR171a, pre-MtmiR171h, pre-MtmiR393a, pre-MtmiR393b, pre-MtmiR396a, pre-MtmiR396b; assay: Specificity: expression of different precursors of microRNAs in M. truncatula; format: in vivo, Medicago truncatula; conditions: plants overexpressing MtmiPEP171b1 or treated with MtmiPEP171b1 (0.1 μM)
Experimental: The expression of different microRNA precursors of Medicago truncatula (MtmiR171b SEQ ID NO: 319, MtmiR169 SEQ ID NO: 367, MtmiR169a SEQ ID NO: 368, MtmiR171a SEQ ID NO: 369, MtmiR171h SEQ ID NO: 370, MtmiR393a SEQ ID NO: 371, MtmiR393b SEQ ID NO: 372, MtmiR396a SEQ ID NO: 373 and MtmiR396b SEQ ID NO: 374) was determined and compared between control plants and plants in which MtmiORF171b encoding MtmiPEP171b1 was overexpressed (FIG. 5A), or between control plants and plants grown on culture medium containing MtmiPEP171b1 (FIG. 5B).
(§6) The total RNA was extracted from roots of M. truncatula or from tobacco leaves using the extraction kit RNeasy Plant Mini Kit (Qiagen). The reverse transcription was performed using the reverse transcriptase SuperScript II (Invitrogen) starting from 500 ng of total RNA. Three repetitions (n=3) were carried out, each with two technical repetitions. Each experiment was repeated from two to three times. The amplifications by qPCR were carried out using a LightCycler 480 System thermocycler (Roche Diagnostics) by the method described in Lauressergues et al. (Plant J., 72(3): 512-22, 2012).

[5] = test system: MtmiR171b; assay: Accumulation of pri-/pre-/mature MtmiR171b in transformed tobacco leaves; format: in vivo, Nicotiana benthamiana
Experimental: In order to determine whether the mechanism of regulation of the microRNAs is conserved in other plant species, the regulation of MtmiR171b by MtmiPEP171b1 was tested in a different cellular model. For this, MtmiR171b and MtmiPEP171b1 were introduced into tobacco leaves.
The accumulation of MtmiR171b was measured in tobacco leaves transformed in order to express MtmiR171b of Medicago truncatula starting from wild-type pri-miRNA capable of producing MtmiPEP171b1, or starting from a mutated version of pri-miRNA incapable of producing MtmiPEP171b1 (in which the start codon ATG of MtmiORF171b has been replaced with ATT) (FIG. 6 and FIG. 20).
The accumulation of pre-MtmiR171b was measured in tobacco leaves transformed in order to express MtmiR171b of Medicago truncatula alone (control), or additionally expressing the wild-type MtmiORF171b of Medicago truncatula (35SmiPEP171b1 ATG), or a mutated version of MtmiORF171b in which the start codon ATG has been replaced with ATT (35SmiPEP171b1 ATT) (FIG. 7 and FIG. 21).
The leaves were watered by spraying with the peptides using peptide solutions at different concentrations (0.01, 0.1, 1 μM), firstly 12 h before sampling and then a second time 30 min before sampling.
as §6
The DNA fragments of interest were amplified with Pfu polymerase (Promega). The DNA fragments were cloned using the XhoI and NotI enzymes into a pPEX-DsRED plasmid for an overexpression under the control of the constitutive strong promoter 35S, and using the KpnI-NcoI enzymes into a pPEX GUS plasmid for the reporter genes, by the method described in Combier et al. (Genes & Dev, 22: 1549-1559, 2008).
The composite plants having roots transformed with Agrobacterium rhizogenes were obtained by the method described in Boisson-Dernier et al. (Mol Plant-Microbe Interact, 18: 1269-1276, 2005). The transformed roots were verified and selected by observations of DsRED with a binocular fluorescence magnifier. The control roots correspond to roots transformed with A. rhizogenes not containing the pPEX-DsRED vector. Transformation of the tobacco leaves was carried out by the method described in Combier et al. (Genes & Dev, 22: 1549-1559, 2008).

[6] = plant in which MtmiPEP171b1 is overexpressed vs control plant
[7] = watering once daily for 5 days with peptide at 0.01, 0.1 or 1 μM vs control plant

Q: With “MLLHRLSKFCKIERDIVYIS (listed as Medicago truncatula) [MtmiPEP171b1]” as the sequence, how does the “relative expression of HAM1” value [1, 6] read?
A: decrease in the expression of the HAM1 and HAM2 genes

Q: And the “relative expression of HAM1” value [1, 7]?
A: decrease in the expression of the HAM1 and HAM2 genes

Q: What about the “relative expression of HAM2” value [2, 6] of the same sequence?
A: decrease in the expression of the HAM1 and HAM2 genes

Q: And the “relative expression of HAM2” value [2, 7]?
A: decrease in the expression of the HAM1 and HAM2 genes

Q: And the “relative expression of MtmiR171b” value [3, 7]?
A: increase in the accumulation

Q: What about the “relative expression of pre-MtmiR171b” value [3] of the same sequence?
A: increase in the accumulation of pre-MtmiR171b

Q: And the “relative expression of pre-MtmiR171b” value ([3]; listed as MtPEP171b1)?
A: increase in the accumulation

Q: And the “ratio of the expression of the precursors of microRNAs to control roots (specificity)” value [4]?
A: only leads to an effect on the accumulation of MtmiR171b and not on the other miRNAs; also recorded: only leads to an increase in the accumulation of MtmiR171b and not of the other miRNAs

Q: And the “relative expression of MtmiR171b” value ([5]; tobacco co-transformed with empty vector, miPEP vector, ATT-mutated ORF or degenerate ORF)?
A: increases the expression of MtmiR171b

Q: And the “relative expression of pre-MtmiR171b” value ([5]; tobacco expressing MtmiR171b alone vs MtmiR171b and MtmiPEP171b1 (or ATT-mutated miORF))?
A: increases the expression of MtmiR171b

Q: What about the “relative expression of pre-MtmiR171b” value ([5]; tobacco expressing MtmiR171b and MtmiPEP171b1 with or without protein tags (His, HA or GFP)) of the same sequence?
A: increases the expression of MtmiR171b, and this effect is independent of the presence of tags

Q: What about the “relative expression of MtmiR171b” value ([5]; tobacco expressing MtmiR171b, peptide 0.1 μM sprayed twice, 12 h and 30 min before sampling) of the same sequence?
A: increase in the accumulation of MtmiR171b

Q: And the “relative expression of MtmiR171b” value ([5]; tobacco expressing MtmiR171b, peptide 0.1 μM sprayed twice, 12 h and 30 min before sampling, listed as miPEP171b1)?
A: increases the accumulation

Q: What about the “relative expression of pre-MtmiR171b” value ([5]; tobacco expressing MtmiR171b, treated with 0.1 μM of peptide) of the same sequence?
A: increase in the accumulation

Q: And the “relative expression of pre-MtmiR171b” value ([5]; tobacco expressing MtmiR171b, treated with 0.1 μM of peptide, listed as miPEP171b1)?
A: increases the accumulation

Q: And the “relative expression of MtmiR171b” value ([5]; tobacco expressing pri-MtmiR171b vs mutated pri-MtmiR171b (ATG replaced with ATT, no translation of the miPEP))?
A: marked decrease in the accumulation of miR171b; also recorded: marked decrease in the accumulation of MtmiR171b

Q: What about the “relative expression of MtmiR171b” value ([5]; tobacco expressing pri-MtmiR171b vs mutated pri-MtmiR171b (ATG replaced with ATT, no translation of the miPEP), listed as miPEP171b1) of the same sequence?
A: marked decrease in the accumulation of miR171b
